Experimental data: PubChem BioAssay (NCI)
Where “and” joins values, the source holds several entries; their conditions need not be identical. Identical values can stand only once.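 Values below derive from 48-hour exposures of cells grown in 96-well plates, with endpoints linearly interpolated between the two concentrations bracketing the appropriate inhibition level. GI50 is the concentration that inhibits growth by half. TGI denotes the concentration required for complete inhibition of growth.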

What was measured:
Assay in all cases: inhibition of tumour cell growth, NCI panel, 48 h
[1] = system: OVCAR-3 ovarian
[2] = system: MOLT-4 leukemia
[3] = system: A498 renal
[4] = system: SW-620 colon
[5] = system: SR leukemia
[6] = system: SK-OV-3 ovarian
[7] = system: MDA-MB-231 breast
[8] = system: SNB-19 CNS
[9] = system: OVCAR-5 ovarian
[10] = system: SN12C renal

| SMILES | GI50 [1] [µM] | TGI [1] [µM] | GI50 [2] [µM] | TGI [2] [µM] | GI50 [3] | TGI [3] [µM] | GI50 [4] [µM] | TGI [4] [µM] | GI50 [5] [µM] | TGI [5] [µM] | GI50 [6] [µM] | TGI [6] [µM] | GI50 [7] [µM] | TGI [7] [µM] | GI50 [8] [µM] | TGI [8] [µM] | GI50 [9] [µM] | TGI [9] [µM] | GI50 [10] [µM] | TGI [10] [µM] |
| --- | --- | --- | --- | --- | --- | --- | --- | --- | --- | --- | --- | --- | --- | --- | --- | --- | --- | --- | --- | --- |
| COc1c(B(O)O)cc(F)cc1-c1nc2ccc3[nH]ncc3c2c2c1CCCC2 | 2.95 | 10.2 | 1.18 | > 100 | 0.0664 µM | 2.52 | 0.66 | 11.2 | 0.108 | > 38.6 | 1.13 | 13.9 | < 0.01 | 15 | 1.73 | 13 | 2.46 | 16.9 | 1.15 | 15.3 |
| O=c1oc2c(C(F)(F)F)cccc2cc1-c1csc(Nc2ccc(OCCF)cc2)n1 | 0.0357 | 5.75 | 0.0418 | > 100 | 0.0353 µM | 20.9 | 0.0468 | > 100 | 0.0383 | > 43.6 | 0.041 | 23.2 | 0.0663 | > 35.9 | 0.0873 | > 56.4 | 0.231 | > 100 | 0.271 | > 64.4 |
| O=C(c1ccccc1)c1c(C(F)(F)F)n([O-])c2ccc(C(F)(F)F)cc2[n+]1=O | 0.252 | 0.66 | 0.0902 | 0.313 | 1.7 µM | 3.11 | 0.135 | 0.279 | 0.109 | 0.393 | 0.988 | 2.38 | 0.185 | 0.354 | 0.83 | 2.1 | 0.264 | 0.753 | 0.215 | 0.468 |
| Cc1cccc(Cc2cnc(NC(=O)CCc3ccc(C)o3)s2)c1 | 0.192 | 0.731 | 0.371 | > 100 | 0.343 µM | 10.5 | 0.142 | > 100 | 0.0543 | > 100 | 0.419 | > 100 | 0.45 | 23.8 | 0.37 | > 100 | 0.798 | > 100 | 0.525 | > 100 |
| COc1cc(-c2csc(NC(=O)Nc3cc(Cl)cc(Cl)c3)n2)cc(OC)c1OC | 1.8 | 3.26 | 3.9 | > 100 | 1.42 µM | 3.1 | 1.97 | 4.02 | 2 | 6.61 | 1.86 | 3.75 | 1.92 | 4.12 | 1.93 | 4.03 | 2.25 | 6.16 | 1.78 | 3.28 |
| CC#Cc1nc(Nc2cc(C)[nH]n2)c2ccccc2n1 | 3.38 | 12.1 | 5.33 | > 100 | 3.93 µM and 1.08 µM | 2.75 | 4.54 | 32.4 | 5.07 | > 100 | 5.19 | 61.3 | 2.85 | 9.34 | 19.8 | 50.7 | 5.69 | 30.7 | 3.08 | 10.4 |
| Cc1c([N+](=O)[O-])oc2ccc3ccccc3c12 | – | > 100 | – | > 100 | – | > 100 | – | > 100 | – | > 100 | – | > 100 | – | > 100 | – | > 100 | – | > 100 | – | > 100 |
| CCN(CC)C(=S)[S][Bi]([S]C(=S)N(CC)CC)[S]C(=S)N(CC)CC | 0.0525 | 0.174 | 0.0945 | 2.28 | 1.24 µM | 2.49 | 0.0916 | 0.229 | 0.0353 | 23.4 | 1.74 | 3.14 | 0.133 | 0.338 | 1.71 | 3.08 | 0.539 | 1.07 | 0.264 | 0.696 |
| CCCCCCCCCCCCCCCCCC(=O)Nc1ccn(C2OC(CO)C(O)C2O)c(=O)n1 (configuration not stated) | – | 69.6 | – | 23.1 | – | 99 | – | > 100 | – | 56.4 | – | > 100 | – | > 100 | – | 69.7 | – | > 100 | – | > 100 |
| CC(=C/c1ccccc1)/C=C1/NC(=S)N(/C=C2\C(=O)Oc3ccccc3C2=O)C1=O | – | > 100 | – | > 100 | – | > 100 | > 100 | > 100 | – | > 100 | > 100 | > 100 | – | > 100 | – | > 100 | – | > 100 | – | > 100 |
| CC(O)c1cc(C(=O)N[C@@H](C)Cn2ccc(-c3ccc(C#N)c(Cl)c3)n2)n[nH]1 (some centres not stated) | 47.3 | > 100 | 0.37 | 5.15 | 3.51 µM | 55.9 | > 100 | > 100 | 8.06 | > 100 | > 100 | > 100 | 53.3 | > 100 | > 100 | > 100 | > 100 | > 100 | 48.7 | > 100 |
| Oc1c(CN2CCN(c3ccccc3)CC2)cc(Br)c2cccnc12 | – | > 79.5 | – | 6.15 | – | > 100 | – | > 100 | – | 2.25 | – | 26.8 | – | 15.7 | – | > 100 | – | > 67.4 | – | > 37.6 |
| CS(=O)(=O)N(c1cc(-c2ccc3ncnc(Nc4cccc(Cl)c4)c3c2)cnc1Cl)S(C)(=O)=O | 0.333 | 1.88 | 0.334 | 1.31 | 0.0685 µM | 0.388 | 0.742 | 13.4 | 0.696 | 6.68 | 0.316 | 1.81 | 0.925 | 6.21 | 0.936 | 7.89 | 0.181 | 6.55 | 0.386 | 17 |
| Cc1ccc([C@]2(C)CC[C@H](C)/C2=C\Br)c(O)c1 | 3.23 | 12.2 | 4.17 | 16.8 | 5.31 µM | 20.3 | 3.98 | 16.2 | 2.87 | 11.5 | 2.45 | 7.03 | 3.5 | 14.4 | 4.6 | 18.9 | 6.3 | 18.6 | 4.05 | 15.1 |
| CC(=O)c1cc(O)c2ccccc2c1O | 17.7 | 37.5 | 33.6 | 99.4 | 89.5 µM | > 100 | 18.4 | 49.2 | 28 | > 100 | > 100 | > 100 | 15.2 | 36.2 | 46 | > 100 | 23.7 | 43 | 17.5 | 36.3 |
| Cc1cc(I)cc(CN(C)CCCN2CCN(C)CC2)c1O | > 64.5 | > 100 | 21.7 | > 63.8 | 23.6 µM | 54.2 | 24.2 | > 67.7 | 20.1 | > 55.1 | 65.7 | > 100 | 24.1 | > 68.3 | > 100 | > 100 | 78.7 | > 100 | > 94.8 | > 100 |
| O=C(O)C(Oc1nc(=S)[nH]c(=S)[nH]1)(c1ccc(Cl)cc1)c1ccc(Cl)cc1 | – | > 100 | – | > 100 | – | > 100 | – | > 100 | – | > 100 | – | > 100 | – | > 100 | – | > 100 | – | > 100 | – | > 100 |
| CN(C)CCCn1c(-c2nonc2N)nc2cnccc21 | > 25 | > 25 | > 25 | > 25 | 12 µM | > 25 | > 25 | > 25 | > 25 | > 25 | > 25 | > 25 | > 25 | > 25 | > 25 | > 25 | > 25 | > 25 | > 25 | > 25 |
| O=C1OCC2=C1C(c1ccccc1)c1cc3c(cc1N2CCO)OCCO3 (configuration not stated) | 0.132 | 0.312 | 0.236 | > 10.4 | 0.188 µM | 4.05 | 0.224 | > 50 | 0.14 | 2.57 | 0.348 | 13.4 | 1.14 | 11.5 | 0.921 | > 16.8 | 2.12 | > 50 | 4.46 | > 50 |
| CC(C)=CCCC(C)C1=C(O)C(=O)C(C)=CC1=O (configuration not stated) | – | 18.3 | – | 5.12 | – | 35.1 | – | > 50.4 | – | 5.39 | – | 78.5 | – | 7.94 | – | > 62.4 | – | 33.5 | – | 34.6 |
